# Test results taken from US5574013A (Warner-Lambert Company, priority 1993, dated 1996).
# Biological target: T1, CCK B (Mus musculus, UniProt P56481)
# T1 construct: from tissue; host or cells: cerebral cortex membranes of male CFLP mice
# T1 sequence (P56481 1-453): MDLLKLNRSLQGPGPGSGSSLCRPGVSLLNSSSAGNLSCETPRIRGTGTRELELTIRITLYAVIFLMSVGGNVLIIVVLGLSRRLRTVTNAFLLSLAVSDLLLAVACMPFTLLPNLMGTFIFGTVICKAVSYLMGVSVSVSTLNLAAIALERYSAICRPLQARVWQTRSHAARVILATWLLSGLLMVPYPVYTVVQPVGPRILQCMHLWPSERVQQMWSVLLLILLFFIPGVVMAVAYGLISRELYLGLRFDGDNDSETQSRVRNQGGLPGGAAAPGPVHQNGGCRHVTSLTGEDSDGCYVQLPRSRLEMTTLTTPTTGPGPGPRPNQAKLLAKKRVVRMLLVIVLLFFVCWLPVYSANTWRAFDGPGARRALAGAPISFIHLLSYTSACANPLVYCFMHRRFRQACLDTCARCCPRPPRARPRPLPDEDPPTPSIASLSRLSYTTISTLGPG
# Experiment: CCK receptor binding screening test, displacement of tritiated-pentagastrin from mouse cerebral cortical membranes
# Conditions: Ki by Cheng-Prusoff; 2 nM tritiated-pentagastrin; mouse cerebral cortex membranes; read-out: Binding Affinity CCK B
# Description: The biological activity of compounds of the present invention was evaluated employing an initial screening test which rapidly and accurately measured the binding of the tested compound to known CCK receptor sites. […] (See Hays et al, Neuropeptides 1:53-62, 1980; and Satuer et al, Science 208:1155-1156, 1980.
# In this screening test, the cerebral cortices taken from male CFLP mice weighing between 30-40 g were dissected on ice, weighed, and homogenized in 10 volumes of 50 mM Tris-HCl buffer (pH 7.4 at 0°-4° C.). The resulting suspension was centrifuged, the supernate was discarded, and the pellet was washed by resuspension in Tris-HCl buffer followed by recentrifugation. The final pellet was resuspended in 20 volumes of […] Hepes buffer (pH 7.2 at 23° C.) containing 130 mM NaCl, […] KCl, […] MgCl2, […] EDTA, 5 mg/mL bovine albumin, and bacitracin (0.25 mg/mL).
# In saturation studies, cerebral cortical membranes were incubated at 23° C. for 120 minutes in a final volume of 500 μL of Hepes incubation buffer (pH 7.2) together with 0.2-20 nM tritiated-pentagastrin (Amersham International, England).
# In the displacement experiments, membranes were incubated with a single concentration (2 nM) of ligand, together with increasing concentrations ([…]) of competitive test compound. In each case, the nonspecific binding was defined as that persisting in the presence of the unlabeled octapeptide CCK26-33 (10^-6 M).
# Following incubation, radioactivity bound to membranes was separated from that free in solution by rapid filtration through Whatman GF/B filters and washed three times with 4 mL of ice cold Tris-HCl buffer. Filters from samples incubated with tritiated-pentagastrin were placed in polyethylene vials with 4 mL of scintillation cocktail, and the radioactivity was estimated by liquid scintillation spectrometry (efficiency 47-52%).
# The specific binding to CCK receptor sites was defined as the total bound tritiated-pentagastrin minus the amount of tritiated-pentagastrin bound in the presence of 10^-6 octapeptide, CCK26-33.
# Saturation curves for specific tritiated-pentagastrin binding to mouse cortical membranes were analyzed by the methods of Scatchard (Ann. New York Acad. Sci. 51:660-672, 1949, and Hill (J. Physiol. 40:IV-VIII, 1910, to provide estimates for the maximum number of binding sites (Bmax) and the equilibrium dissociation constant (Ka).
# In displacement experiments, inhibition curves were analyzed by either logit-log plots or the iterative curve fitting computer program ALLFIT (DeLean, Munson and Redbard, 1978) to provide estimates of the IC50 and nH (apparent Hill coefficient) values). (IC50 values were defined as the concentration of test compound required to produce 50% inhibition of specific binding.)
# The inhibition constant (Ki) of the test compound was then calculated according to the Cheng-Prusoff equation: [formula] where [L] is the concentration of radiolabel and Ka is the equilibrium dissociation constant.
# The Ki values for several representative compounds of the present invention are present in Table I.
row,Compound,Ki [nM]
1,"COC(=O)CCCNC(=O)[C@@](C)(Cc1c[nH]c2ccccc12)NC(=O)OC1C2CC3CC(C2)CC1C3 (stereo partly drawn) [Example 1, Butanoic acid, 4-[[3-(1H-indol-3-yl)-2-methyl-1-oxo-2-[[(tricyclo[3.3.1.1^3,7]dec-2-yloxy)carbonyl]amino]propyl]amino]-, methyl ester (R)-]",82.1
2,"C[C@](Cc1c[nH]c2ccccc12)(NC(=O)OC1C2CC3CC(C2)CC1C3)C(=O)NCC(=O)OCc1ccccc1 (stereo partly drawn) [Example 3, Gycine, N-[2-methyl-N-[(tricyclo[3.3.1.1^3,7]dec-2-yloxy)carbonyl]-D-tryptophyl]-, phenylmethyl ester]",50.4
3,C[C@](Cc1c[nH]c2ccccc12)(NC(=O)OC1C2CC3CC(C2)CC1C3)C(=O)NCC(=O)O (stereo partly drawn) [Example 4],1510
4,"C[C@](Cc1c[nH]c2ccccc12)(NC(=O)OC1C2CC3CC(C2)CC1C3)C(=O)NCCC(=O)O (stereo partly drawn) [Example 6, β-Alanine, N-[α-methyl-N-[(tricyclo[3.3.1.1^3,7]dec-2-yloxy)carbonyl]-D-tryptophyl]-]",4380
5,"C[C@](Cc1c[nH]c2ccccc12)(NC(=O)OC1C2CC3CC(C2)CC1C3)C(=O)NCCC(=O)OCc1ccccc1 (stereo partly drawn) [Example 7, Propanoic acid, 3-[(3-(1H-indol-3-yl)-2-methyl-1-oxo-2-[[(tricyclo[3.3.1.1^3,7]dec-2-yloxy)carbonyl]amino]propyl]amino]--, phenylmethyl ester (R)-]",299
6,"CC(C)CC(CO)NC(=O)C(C)(Cc1c[nH]c2ccccc12)NC(=O)OC1C2CC3CC(C2)CC1C3 (stereo not drawn) [Example 8, Carbamic acid, [2-[[1-(hydroxymethyl)-3-methylbutyl]amino]-1-(1H-indol-3-ylmethyl)-1-methyl-2-oxoethyl]-, tricyclo[3.3.1.1^3,7]dec-2-yl ester, [R-(R*,S*)]-]",292
7,"CCC(C)C(CO)NC(=O)C(C)(Cc1c[nH]c2ccccc12)NC(=O)OC1C2CC3CC(C2)CC1C3 (stereo not drawn) [Example 9, Carbamic acid, [2-[[1-(hydroxymethyl)-2-methylbutyl]amino]-1-(1H-indol-3-ylmethyl)-1-methyl-2-oxoethyl]-, tricyclo[3.3.1.1^3,7]dec-2-yl ester, [1S-[1R*(S*), 2R*]]-]",225
8,"CSCC[C@H](NC(=O)[C@@](C)(Cc1c[nH]c2ccccc12)NC(=O)OC1C2CC3CC(C2)CC1C3)C(=O)O (stereo partly drawn) [Example 11, N-[α-methyl-N-[(tricyclo[3.3.1.1^3,7]dec-2-yloxy)carbonyl]-D-tryptophyl]-L-methionine]",24
9,COC(=O)CCNC(=O)[C@H](CCSC)NC(=O)[C@@](C)(Cc1c[nH]c2ccccc12)NC(=O)OC1C2CC3CC(C2)CC1C3 (stereo partly drawn) [Example 12],30
